The source made the active and inactive calls. No cut-off for these calls is given here. Where a SMILES comes first, the peptide text is derived from it. The star is where a group is joined. Cbz = O=C(OCc1ccccc1)*; CH2F = FC*
Columns and labels:
[1] = molecular target: T1, Heme oxygenase 1 (Homo sapiens) (UniProt P09601); test: Induction of HO-1 enzymatic activity in human MDA-MB-231 cells assessed as increase in bilirubin formation at 10 uM incubated for 18 hrs in presence of NADPH by double-beam spectrophotometer analysis; type: cell-based; details: filed as activator
T1 sequence (whole entry): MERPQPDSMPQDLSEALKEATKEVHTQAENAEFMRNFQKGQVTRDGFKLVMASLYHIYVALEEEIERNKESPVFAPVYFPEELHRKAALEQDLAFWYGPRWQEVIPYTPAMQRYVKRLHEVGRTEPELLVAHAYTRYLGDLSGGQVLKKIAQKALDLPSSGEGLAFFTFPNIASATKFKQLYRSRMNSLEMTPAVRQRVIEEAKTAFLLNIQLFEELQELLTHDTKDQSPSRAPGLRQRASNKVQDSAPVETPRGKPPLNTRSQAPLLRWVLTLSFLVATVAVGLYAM

[2] = test system: MDA-MB-231; test: Induction of ferroptosis in human MDA-MB-231 cells assessed as reduction in cell viability at 10 to 50 uM incubated for 24 hrs by MTT assay; type: functional, cell-based; details: dose 10-50 µM
[3] = test system: MDA-MB-231; test: Induction of ferroptosis in human MDA-MB-231 cells assessed as reduction in cell viability at 50 uM incubated for 48 hrs in presence of ferrostatin-1 by MTT assay; type: functional, cell-based
[4] = test system: MDA-MB-231; test: Cytotoxicity against human MDA-MB-231 cells assessed as reduction in cell viability at 50 uM incubated for 48 hrs by MTT assay; type: functional, cell-based
[5] = test system: Cell membrane; test: Induction of mitochondrial membrane dysfunction in human MDA-MB-231 cells assessed as increase in green fluorescence intensity incubated for 6 hrs by JC-1 staining based fluorescence microscopic analysis; type: cell membranes
[6] = test system: MDA-MB-231; test: Induction of ferroptosis in human MDA-MB-231 cells assessed as reduction in GSH content at 50 uM incubated for 20 mins in presence of ferrostatin-1 by spectrophotometric assay; type: functional, cell-based
[7] = test system: MDA-MB-231; test: Induction of ferroptosis in human MDA-MB-231 cells assessed as effect on IL-6 level at 50 uM incubated for 5 to 18 hrs in presence of ferrostatin-1 by ELISA analysis; type: functional, cell-based; details: time 5-18 hrs
[8] = test system: MDA-MB-231; test: Induction of ferroptosis in human MDA-MB-231 cells assessed as increase in lipid hydroperoxide level at 50 uM incubated for 30 mins in presence of ferrostatin-1; type: functional, cell-based
[9] = test system: Cell membrane; test: Induction of mitochondrial membrane dysfunction in human MDA-MB-231 cells assessed as decrease in red fluorescence intensity incubated for 6 hrs by JC-1 staining based fluorescence microscopic analysis; type: cell membranes
[10] = test system: MDA-MB-231; test: Induction of ROS production in human MDA-MB-231 cells assessed as increase in fluorescence intensity measured for 1 to 6 hrs; type: functional, cell-based; details: time 1-6 hrs
[11] = test system: MDA-MB-231; test: Upregulation of HO-1 expression in human MDA-MB-231 cells at 10 uM incubated for 18 hrs by ELISA analysis; type: functional, cell-based
[12] = test system: MDA-MB-231; test: Induction of ferroptosis in human MDA-MB-231 cells assessed as increase in intracellular Fe2+ level at 10 to 50 uM incubated for 18 hrs by colorimetric assay; type: functional, cell-based; details: dose 10-50 µM
[13] = test system: MDA-MB-231; test: Induction of ferroptosis in human MDA-MB-231 cells assessed as decrease in GSH content at 10 to 50 uM incubated for 24 hrs by spectrophotometric assay; type: functional, cell-based; details: dose 10-50 µM
[14] = test system: MDA-MB-231; test: Cytotoxicity against human MDA-MB-231 cells assessed as reduction in cell viability at 50 uM incubated for 48 hrs in presence of ferrostatin-1 by MTT assay; type: functional, cell-based
[15] = test system: MDA-MB-231; test: Induction of ferroptosis in human MDA-MB-231 cells assessed as increase IL-6 level at 50 uM incubated for 5 to 18 hrs by ELISA analysis; type: functional, cell-based; details: time 5-18 hrs
[16] = test system: MDA-MB-231; test: Cytotoxicity against human MDA-MB-231 cells assessed as reduction in cell viability at 50 uM incubated for 48 hrs in presence of Z-VAD-FMK by MTT assay; type: functional, cell-based

| Activity [1] | Structure (SMILES) | Activity [2] | also measured |
| --- | --- | --- | --- |
| Active | COc1ccc(OC)c(CCOC(=O)/C=C/c2ccc(O)c(O)c2)c1 | Active |  |
| Active | COc1cc(CCOC(=O)/C=C/c2ccc(O)c(O)c2)cc(OC)c1 | Active | Activity [3]: Active |
| Active | COc1ccc(CCOC(=O)/C=C/c2ccc(O)c(O)c2)cc1 | Active |  |
| Active | COc1ccc(CCOC(=O)/C=C/c2ccc(O)c(O)c2)cc1OC | Active | Activity [3]: Active |
| Active | O=C(/C=C/c1ccc(O)c(O)c1)OCCc1ccccc1 |  | Activity [12]: Active; Activity [13]: Active; Activity [14]: Active; Activity [15]: Active; Activity [4]: Active; Activity [16]: Active |
| Active | COc1ccc(CCOC(=O)/C=C/c2ccc(O)c(O)c2)c(OC)c1 | Active |  |

Further lines, the molecule ahead of its results:

| Structure (SMILES) | Activity [1] | Activity [2] | also measured |
| --- | --- | --- | --- |
| O=C(/C=C/c1ccc(O)c(O)c1)OCCc1ccc2c(c1)OCO2 | Active | Active |  |
| COc1ccc(CCOC(=O)/C=C/c2ccccc2)cc1OC | Active | Active |  |
| CCOC(=O)c1ccc(NC2CCCCC2)c(N)c1 |  |  | Activity [4]: Active |
| O=C(/C=C/c1ccccc1)OCCc1c[nH]c2ccccc12 | Active | Active | Activity [3]: Active; Activity [5]: Active; Activity [6]: Active; Activity [7]: inactive; Activity [8]: Active; Activity [9]: Active; Activity [10]: Active; Activity [11]: Active |
| CC(C)[C@H](NC(=O)OCc1ccccc1)C(=O)N[C@@H](C)C(=O)N[C@@H](CC(=O)O)C(=O)CF (Cbz-Val-Ala-Asp-CH2F) |  |  | Activity [4]: Active |
| O=C(/C=C/c1ccc(O)c(O)c1)OCCc1c[nH]c2ccccc12 | Active | Active |  |
